{"source": "patent US6573060B1", "about": "“Methods and compositions for targeting DNA metabolic processes using aminoglycoside derivatives” (University of Virginia Patent Foundation, priority 1997, dated 2003)", "key": {"[1]": {"system": "Entamoeba histolytica", "assay": "Entamoeba histolytica culture growth", "format": "cell-based", "conditions": "72 h, read-out: concentration that completely kills the cells", "experimental": "Entamoeba histolytica HMl-ISS strain was used for the experiment. The cells were grown in tissue culture medium TYI-S-33 containing trypticase, yeast extract, iron and serum along with 100 units/ml penicillin and […] streptomycin sulfate. 500,000 amoebae were incubated in 2 mls of media. The drugs were added to the required final concentration. The total number of amoebae was counted every 24 hours after the addition of drugs using light microscope. Growth was monitored over a period of 72 hours."}, "[2]": {"system": "CHO non-K1 cells", "assay": "DNA replication assay in permeabilized CHO non-K1 cells", "format": "cell-based", "conditions": "phosphokanamycin 100 μM, phosphoneomycin 10 μM (FIG. 7)", "experimental": "CHO non-K1 cells were used for the DNA replication assay. Cells were grown to density of 2×10^7 cells/plate in MEM medium supplemented with fetal calf serum. The cells were in log phase and unsynchronized. The plates were washed three times with cold MEM medium and cells were scraped off the plates into eppendorf tubes. The cells were centrifuged at 2000 rpm for 3 mm at 4° C. From each plate approximately 100 μl of cells were obtained. The cell pellet was resuspended in an equal volume of replication buffer [100 mM HEPES (pH 7.8), 0.2 mM dGTP, 0.2 mM DATP, 0.2 mM dTTP, 0.4 mM GTP, 0.4 mM CTP, 0.4 mM UTP, 8 mM ATP, 20 mM MgCl2, 0.2 mg/ml BSA, 2 mM DTT, 30% glycerol]. The cell suspension (20 μl) was aliquoted to individual tubes. Aminoglycosides and phosphoaminoglycosides were then added to the required final concentration. The cells were permeabilized by the addition of 0.5 μl of 20% NP-40 detergent. To monitor replication, 2 μl of α[^32 P] dCTP (3000-6000 Ci/mmole activity) was added. The cells were incubated at 37° C. for 10 min and the reaction was stopped by addition of 200 μl of stop buffer [50 mM TrisCl (pH 8.0), 10 mM EDTA, 400 mM NaCl, 1% SDS]. The cells were further incubated at 37° C. for 2 hours.\nThe DNA was sheared by passing 5-10 times through a 23 gauge needle. […] After drying, the radioactivity was measured using a liquid scintillation counter (Beckman)."}, "[3]": {"target": "T1, DNA-dependent ATPase A (Bos taurus, UniProt Q9TTA5)", "T1 sequence (Q9TTA5 222-940)": "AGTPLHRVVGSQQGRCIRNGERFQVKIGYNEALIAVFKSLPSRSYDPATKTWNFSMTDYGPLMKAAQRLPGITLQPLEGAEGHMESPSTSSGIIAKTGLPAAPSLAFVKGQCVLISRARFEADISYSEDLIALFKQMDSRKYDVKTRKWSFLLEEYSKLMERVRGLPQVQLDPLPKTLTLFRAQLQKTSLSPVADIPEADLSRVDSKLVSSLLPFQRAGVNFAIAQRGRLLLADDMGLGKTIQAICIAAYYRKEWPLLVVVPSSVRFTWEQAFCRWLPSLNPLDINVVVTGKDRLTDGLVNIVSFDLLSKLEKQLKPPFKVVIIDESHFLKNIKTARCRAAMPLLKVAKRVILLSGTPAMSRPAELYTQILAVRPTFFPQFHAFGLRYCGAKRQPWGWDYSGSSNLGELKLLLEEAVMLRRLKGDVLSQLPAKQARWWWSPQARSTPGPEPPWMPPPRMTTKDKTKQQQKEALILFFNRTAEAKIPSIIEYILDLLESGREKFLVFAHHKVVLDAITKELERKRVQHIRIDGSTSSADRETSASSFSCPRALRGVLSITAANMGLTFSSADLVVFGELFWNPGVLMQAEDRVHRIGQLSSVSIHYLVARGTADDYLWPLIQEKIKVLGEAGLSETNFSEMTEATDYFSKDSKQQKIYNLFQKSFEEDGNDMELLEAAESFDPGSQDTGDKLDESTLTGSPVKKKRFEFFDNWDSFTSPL", "assay": "Inhibition of ATP hydrolysis by DNA-dependent ATPase A (overexpressed 82 kDa ADAAD)", "format": "biochemical, bovine", "conditions": "for inhibition of DNA-dependent ATPase A activity (in words): in vitro", "experimental": "Enzyme (0.2 units (one unit is the amount of enzyme required to hydrolyze 1 μmole of adenosine triphosphate per min)) was mixed with 50 mM Tris-SO4, pH 7.5, 1 mM MgCl2, 5 mM β-mercaptoethanol, 0.5 mg/mL bovine serum albumin, 2 mM phosphoenol pyruvate, 0.03 mg/mL pyruvate kinase, 10 nM of stem-loop DNA, and 2 mM adenosine triphosphate in a total volume of 100 μL. The reaction was typically incubated at 37° C. for 10-60 minutes. At the end of the designated time, 225 μL of 10% sodium dodecyl sulfate and 350 μL of water were added to stop the reaction. Color development requires the addition of two reagents: 180 μL of reagent A (prepared by mixing equal volumes of 60 to 70% perchloric acid and 5% ammonium molybdate in water) and 45 μL of reagent B (0.2 g 1:2:4 aminonaphthol sulfonic acid, 12.0 g sodium metabisulfite, and 2.4 g sodium sulfite dissolved in 100 mL of water) was added. The reaction was incubated at room temperature for 10 minutes and the absorbance was read at 720 nm. The color development was time-dependent and therefore samples must be read at exactly 10 minutes.\nEnzyme (0.2 units (one unit is the amount of enzyme required to hydrolyze 1 μmole of adenosine triphosphate per min)) was mixed with 25 mM Tris-acetate pH 7.5, 6 mM Mg(acetate)2, 60 mM KCl, 5 mM β-mercaptoethanol, 3 mM phosphoenol pyruvate, 10 units/mL pyruvate kinase, 10 units/mL lactate dehydrogenase 10 nM DNA, 2 mM adenosine triphosphate, and 0.1 mg/mL NADH in a final volume of 1 mL. The progress of the reaction at 37° C. was monitored at 340 nm using an HP8452 spectrophotometer.\nEnzyme (0.2 U) was mixed with 50 mM Tris-SO4, pH 7.5, 1 mM MgCl2, 5 mM β-mercaptoethanol, 0.5 mg/mL bovine serum albumin, 2 mM phosphoenol pyruvate, 0.03 mg/mL pyruvate kinase, 10 nM of stem-loop DNA, and 2 mM adenosine triphosphate in a total volume of 50 μL. Three (3) μCi of [^32P]-γ-adenosine triphosphate was added to the reaction and typical incubation was for 60 minutes 37° C. EDTA (25 mM) was added to stop the reaction. 10 μL of the reaction was spotted on a poly(ethylenimine)-cellulose plate. The plate was developed using 0.9M LiCl and 7M urea as solvent system. The plate was allowed to dry and autoradiographed either using X-OMAT film or a phosphorimager. […]"}}}
{"smiles": "NC[C@H]1O[C@H](O[C@H]2[C@H](O)[C@@H](O[C@H]3O[C@H](CO)[C@@H](O)[C@H](N)[C@H]3O)[C@H](N)C[C@@H]2N)[C@H](O)[C@@H](OP(=O)(O)O)[C@@H]1O", "note": "[phosphokanamycin, 3′-phosphokanamycin]", "values": [{"measurement": "IC (100 (complete killing))", "setting": "[1]", "value": 200, "unit": "µM"}, {"measurement": "effect on DNA synthesis (in words)", "setting": "[2]", "value": "disrupted DNA synthesis"}, {"measurement": "Ki", "setting": "[3]; Table 4, determined in the presence of effector", "value": 580, "unit": "nM"}, {"measurement": "Ki", "setting": "[3]; kinetic analysis of ATP hydrolysis, competitive with respect to DNA", "value": "~200", "unit": "nM"}, {"measurement": "inhibition of DNA-dependent ATPase A activity (in words)", "setting": "[3]", "value": "inhibitor"}, {"measurement": "inhibition of DNA-dependent ATPase A activity (in words)", "setting": "[3]; listed as 3′-phosphokanamycin", "value": "potent competitive (with respect to DNA) inhibitor"}, {"measurement": "decrease in amount of drug required for a given level of inhibition / potency relative to the parent aminoglycoside", "setting": "[3]; phosphorylated derivative vs parent", "value": 1000, "unit": "fold"}]}
